{
  "source": "patent US20070270488A1",
  "about": "“Treatment and Assays” (The Queen's University of Belfast, priority 2004, published 2007)",
  "key": {"[1]": {"test_system": "p53^−/− 5-FU-resistant HCT116 cells", "assay": "MTT cytotoxicity assay, p53^−/− 5-FU-resistant HCT116 cells", "format": "cell-based, human", "method": "(§4) Tissue culture. HCT116 p53^+/+ and p53^−/− isogenic human colon cancer cells were kindly provided by Professor Bert Vogelstein (John Hopkins University, Baltimore, Md.). […] Parental and drug-resistant HCT116 cell lines were grown in McCoy's 5A medium supplemented with 10% dialysed foetal calf serum (FCS), 50 μg/ml penicillin-streptomycin, 2 mM L-glutamine and 1 mM sodium pyruvate (all from GIBCO Invitrogen Corporation, Paisley, Scotland) and maintained at 37° C. in a humidified atmosphere containing 5% CO2. 5-FU-resistant p53^+/+ and p53^−/− HCT116 cells were maintained in the presence of 2 μM and 4 μM 5-FU respectively. […] Prior to each experiment, resistant sub-lines were cultured in the absence of drug for 48 hours."}, "[2]": {"test_system": "p53^+/+ oxaliplatin-resistant HCT116 cells", "assay": "MTT cytotoxicity assay, p53^+/+ oxaliplatin-resistant HCT116 cells", "format": "cell-based, human", "settings": "p53^+/+ oxaliplatin-resistant, MTT, 72 h; read-out: IC50(72 h)", "description": "(§1) Tissue culture. HCT116 p53^+/+ and p53^−/− isogenic human colon cancer cells were kindly provided by Professor Bert Vogelstein (John Hopkins University, Baltimore, Md.). Drug-resistant HCT116 sub-lines were developed in the inventors' laboratory by repeated exposure to stepwise increasing concentrations of 5-FU, CPT-11 or oxaliplatin over a period of approximately ten months. Parental and drug-resistant HCT116 cell lines were grown in McCoy's 5A medium supplemented with 10% dialysed foetal calf serum (FCS), 50 μg/ml penicillin-streptomycin, 2 mM L-glutamine and 1 mM sodium pyruvate (all from GIBCO Invitrogen Corporation, Paisley, Scotland) and maintained at 37° C. in a humidified atmosphere containing 5% CO2. 5-FU-resistant p53^+/+ and p53^−/− HCT116 cells were maintained in the presence of 2 μM and 4 μM 5-FU respectively. CPT-11-resistant p53^+/+ and p53^−/− HCT116 cells were maintained in the presence of 1 μM and 3 μM CPT-11 respectively. […] Prior to each experiment, resistant sub-lines were cultured in the absence of drug for 48 hours.\n(§2) Cytotoxicity studies. Cells were seeded at 2000 cells per well in 96-well microtiter plates. After 48 hours, cells were treated with a range of concentrations of 5-FU, CPT-11 or oxaliplatin.\n(§3) After 72 hours, 25 μl of MTT dye (5 mg/ml) was added to each well and the plates were incubated at 37° C. for 3 hours. Dark-blue formazan crystals formed by live cells were dissolved in 200 μl of DMSO and absorbance in individual wells was determined at 570 nm using an Emax precision microplate reader (Molecular Devices, Sunnyvale, Calif.)."}, "[3]": {"test_system": "p53^+/+ 5-FU-resistant HCT116 cells", "assay": "MTT cytotoxicity assay, p53^+/+ 5-FU-resistant HCT116 cells", "format": "cell-based, human", "method": "as §4"}, "[4]": {"test_system": "p53^+/+ 5-FU-resistant HCT116 cells", "assay": "Flow cytometry cell cycle/apoptosis, p53^+/+ 5-FU-resistant cells", "format": "cell-based, human", "settings": "72 hours", "method": "(§5) Parental and drug-resistant HCT116 cell lines were grown in McCoy's 5A medium supplemented with 10% dialysed foetal calf serum (FCS), 50 μg/ml penicillin-streptomycin, 2 mM L-glutamine and 1 mM sodium pyruvate (all from GIBCO Invitrogen Corporation, Paisley, Scotland) and maintained at 37° C. in a humidified atmosphere containing 5% CO2. 5-FU-resistant p53^+/+ and p53^−/− HCT116 cells were maintained in the presence of 2 μM and 4 μM 5-FU respectively. […] Prior to each experiment, resistant sub-lines were cultured in the absence of drug for 48 hours.\n(§6) Flow cytometry. Cells were seeded at 5×10^4 cells per well in 6-well plates. […] Seventy-two hours post-treatment, cells were harvested in 5 ml of 1× PBS/0.5 mM EDTA and pelleted by centrifugation at 1000 rpm/4° C. for 5 minutes. Cell pellets were washed once with 1× PBS/1% FCS, fixed in 70% ethanol and stained with propidium iodide. Analyses were performed on a Beckman Coulter Epics XL flow cytometer (Miami, Fla.)."}, "p53^+/+ HCT116 cells": {"test_system": "p53^+/+ HCT116 cells", "assay": "PARP cleavage immunoblotting, p53^+/+ HCT116 cells", "format": "cell-based, human", "settings": "5 μM, 48 hours, Western blot", "method": "(§7) Immunoblotting. Cells, were seeded at 1×10^6 cells per plate in 90 mm tissue culture dishes. […] After 48 hours, cells were harvested and resuspended in 200 μl of 1× RIPA buffer (20 mM TRIS pH7.4, 150 mM NaCl, 1 mM EDTA pH8.0, 1% Triton X-100, 0.1% SDS). Cells were lysed and centrifuged at 13,200 rpm/4° C. for 15 minutes to remove cell debris.\n(§8) Protein concentrations were determined using the BCA protein assay reagent (Pierce, Rockford, Ill.). Twenty micrograms of each protein sample were resolved by SDS-PAGE and transferred to a PVDF membrane by electroblotting. Immunodetection was performed using anti-PARP or anti-β-tubulin mouse monoclonal antibodies and a 1/2000 dilution of a horseradish peroxidase-conjugated sheep anti-mouse secondary antibody (Amersham, Buckinghamshire, England). The fluorescent signal was detected using the Super Signal chemiluminescent detection system (Pierce) according to the manufacturer's instructions."}, "advanced CRC": {"test_system": "advanced CRC", "settings": "monotherapy; cited from earlier work"}, "[5]": {"test_system": "p53^−/− oxaliplatin-resistant HCT116 cells", "assay": "MTT cytotoxicity assay, p53^−/− oxaliplatin-resistant HCT116 cells", "format": "cell-based, human", "settings": "p53^−/− oxaliplatin-resistant, MTT, 72 h; read-out: IC50(72 h)", "description": "as §1, §2, §3"}, "[6]": {"test_system": "HCT116 p53^−/− parental cells", "assay": "MTT cytotoxicity assay, HCT116 p53^−/− parental cells", "format": "cell-based, human", "description": "as §1, §2, §3"}, "[7]": {"test_system": "HCT116 p53^+/+ parental cells", "assay": "MTT cytotoxicity assay, HCT116 p53^+/+ parental cells", "format": "cell-based, human", "settings": "HCT116 p53^+/+ parental, 72 h, read-out: IC50(72 h)", "description": "as §1, §2, §3"}, "[8]": {"test_system": "p53^−/− 5-FU-resistant HCT116 cells", "assay": "Flow cytometry cell cycle/apoptosis, p53^−/− 5-FU-resistant cells", "format": "cell-based, human", "settings": "1 μM, 5 μM and 10 μM, relative to untreated control cells", "description": "as §1\nFlow cytometry. Cells were seeded at 5×10^4 cells per well in 6-well plates. After 48 hours, cells were treated with a range of concentrations of 5-FU, CPT-11 or oxaliplatin. Seventy-two hours post-treatment, cells were harvested in 5 ml of 1× PBS/0.5 mM EDTA and pelleted by centrifugation at 1000 rpm/4° C. for 5 minutes. […]"}, "resected stage III CRC": {"test_system": "resected stage III CRC", "settings": "adjuvant 5-FU-based chemotherapy, patients with resected stage III CRC; cited from earlier work"}, "[9]": {"test_system": "p53^+/+ HCT116 parental cells", "assay": "Flow cytometry cell cycle/apoptosis, p53^+/+ HCT116 parental cells", "format": "cell-based, human", "settings": "72 hours", "method": "as §5, §6"}, "[10]": {"test_system": "p53^−/− HCT116 parental cells", "assay": "Flow cytometry cell cycle/apoptosis, p53^−/− HCT116 parental cells", "format": "cell-based, human", "settings": "72 hours", "method": "as §5, §6"}, "p53^−/− HCT116 cells": {"test_system": "p53^−/− HCT116 cells", "assay": "PARP cleavage immunoblotting, p53^−/− HCT116 cells", "format": "cell-based, human", "settings": "5 μM, 48 hours, Western blot", "method": "as §7, §8"}, "[11]": {"test_system": "p53^−/− CPT-11-resistant HCT116 cells", "assay": "MTT cytotoxicity assay, p53^−/− CPT-11-resistant HCT116 cells", "format": "cell-based, human", "method": "as §4"}, "[12]": {"test_system": "p53^+/+ CPT-11-resistant HCT116 cells", "assay": "MTT cytotoxicity assay, p53^+/+ CPT-11-resistant HCT116 cells", "format": "cell-based, human", "settings": "p53^+/+ CPT-11-resistant, MTT, 72 h; read-out: IC50(72 h)", "method": "as §4"}, "[13]": {"test_system": "p53^−/− CPT-11-resistant HCT116 cells", "assay": "Flow cytometry cell cycle/apoptosis, p53^−/− CPT-11-resistant cells", "format": "cell-based, human", "settings": "p53^−/− CPT-11-resistant cell line, data not shown"}},
  "data": [
    {"compound": "O=c1[nH]cc(F)c(=O)[nH]1", "note": "[5-FU]", "values": [
      {"measurement": "increase in IC50 (72 hr) compared to parental cells", "setting": "[1]; p53^−/− 5-FU-resistant vs p53^−/− parental", "result": 9.0, "unit": "fold"},
      {"measurement": "IC50", "setting": "[1]; p53^−/− 5-FU-resistant, MTT, 72 h, read-out: IC50(72 h)", "result": 178, "unit": "µM"},
      {"measurement": "IC50", "setting": "[2]", "result": 3.6, "unit": "µM"},
      {"measurement": "increase in IC50 (72 hr) compared to parental cells", "setting": "[3]; p53^+/+ 5-FU-resistant vs p53^+/+ parental", "result": 3.0, "unit": "fold"},
      {"measurement": "IC50", "setting": "[3]; p53^+/+ 5-FU-resistant, MTT, 72 h, read-out: IC50(72 h)", "result": 12.7, "unit": "µM"},
      {"measurement": "cell cycle distribution", "setting": "[4]; 1 μM", "result": "no change in cell cycle profile"},
      {"measurement": "cell cycle distribution", "setting": "[4]; 5 μM and 10 μM", "result": "majority of cells had arrested at the G1/S boundary"},
      {"measurement": "induction of apoptosis compared to parental cells", "setting": "[4]; 5 μM and 10 μM", "result": "significantly reduced"},
      {"measurement": "PARP cleavage", "setting": "p53^+/+ HCT116 cells", "result": "observed"},
      {"measurement": "response rates", "setting": "advanced CRC", "result": "10 to 15", "unit": "%"},
      {"measurement": "IC50", "setting": "[5]", "result": 22, "unit": "µM"},
      {"measurement": "IC50", "setting": "[6]; HCT116 p53^−/− parental, MTT, 72 h, read-out: IC50(72 h)", "result": 19.7, "unit": "µM"},
      {"measurement": "increase in IC50 (72 h) dose in p53^−/− compared to p53^+/+ cells", "setting": "[6]; parental HCT116 p53^−/− vs p53^+/+", "result": 4.6, "unit": "fold"},
      {"measurement": "IC50", "setting": "[7]", "result": 4.3, "unit": "µM"},
      {"measurement": "cell cycle distribution", "setting": "[8]", "result": "no change in cell cycle profile"},
      {"measurement": "improvement of disease-free survival", "setting": "resected stage III CRC", "result": 35, "unit": "%"},
      {"measurement": "improvement of overall survival", "setting": "resected stage III CRC", "result": 22, "unit": "%"},
      {"measurement": "cell cycle distribution", "setting": "[9]; 1 μM", "result": "S-phase arrest and evidence of polyploidy"},
      {"measurement": "cell cycle distribution", "setting": "[9]; 5 μM and 10 μM", "result": "arrested in G2/M-phase"},
      {"measurement": "sub-G0/G1 content", "setting": "[9]; 5 μM and 10 μM, ~4% in control samples", "result": "30-35%"},
      {"measurement": "cell cycle distribution", "setting": "[10]; 1 μM", "result": "arrested in S-phase"},
      {"measurement": "cell cycle distribution", "setting": "[10]; 5 μM and 10 μM", "result": "majority of p53^−/− parental cells had DNA content >4N"},
      {"measurement": "drug-induced apoptosis in p53^−/− compared to p53^+/+ parental cells", "setting": "[10]; range of concentrations", "result": "significantly less apoptosis"},
      {"measurement": "PARP cleavage", "setting": "p53^−/− HCT116 cells", "result": "not"},
      {"measurement": "increase in IC50 (72 hr) compared to parental cells", "setting": "[11]; p53^−/− CPT-11-resistant vs p53^−/− parental", "result": "~2", "unit": "fold"},
      {"measurement": "IC50", "setting": "[11]; p53^−/− CPT-11-resistant, MTT, 72 h, read-out: IC50(72 h)", "result": 47, "unit": "µM"},
      {"measurement": "IC50", "setting": "[12]", "result": 4.2, "unit": "µM"},
      {"measurement": "cross-resistance examined using cell cycle analyses", "setting": "[13]", "result": "no evidence of cross-resistance"}
    ]}
  ]
}
